From publication PMC9190099, “Menthol carbonates as potent antiparasitic agents: synthesis and in vitro studies along with computer-aided approaches” (BMC Complementary Medicine and Therapies, 2022)
Where two headings read alike, the source gives them in different places.

Columns and labels:
[1] = tested on: L. braziliensis intracellular amastigotes (HMOM/COL/88/UA301-EGFP); experiment: In vitro activity against L. braziliensis amastigotes in U-937 cells (flow cytometry); assay type: cell-based, Leishmania braziliensis; settings: for Leishmanicidal activity IS (Index of Selectivity = LC50/EC50): LC50 U-937 / EC50 L. braziliensis; for EC50: intracellular amastigotes of L. braziliensis, 72 h, read-out: Leishmanicidal activity EC50 (median effective concentration); for Leishmanicidal activity class: L. braziliensis amastigotes
Procedure: (§1) Compounds were solubilized in DMSO (1 mg/mL, w/v).
One ml was dispensed into each well of a 24-well culture plate. After 72 h, cells were infected with promastigotes of L. braziliensis (HMOM/COL/88/UA301-EGFP) in a proportion of 15:1 (parasites per cell ratio). Plates were incubated at 34 °C, 5% CO2, and 3 h after non-internalized promastigotes were removed by washing twice with phosphate buffer (PBS). Plates were incubated again at 34 °C, 5% CO2, and 24 h later cells were washed with warm PBS and medium replaced. […] After 72 h, cells were removed using trypsin/EDTA solution and washed twice with PBS by centrifuging 10 min at 1100 rpm, 4 °C. […] The percentage of infected cells was calculated using dot plot analysis according to positive events for green fluorescence and then parasite load in these infected cells was calculated by histogram analysis according to the mean fluorescence intensity (MFI). Infected cells were used as control of infection (negative control) and infected cells exposed to Amphotericin B (AMB) were used as control of antileishmanial activity (positive control).
(§2) Then, these percentages of mortality were used to calculate the median lethal concentrations (LC50) by Probit analysis using Graphpad Prism 8 software. In the case of antiparasitic activity (L. braziliensis, T. cruzi and P. falciparum), the percentage in the reduction of parasites for each concentration tested was quantified using Eq. 2:
(§3) 2 %Parasitereduction=100ODorMFIexposedparasites/ODorMFIcontrolparasitesx100
(§4) All experiments were performed in triplicate. Both cytotoxicity and antiparasitic activity were classified as high, moderate, or low, according to ranges previously established based on the own hit criteria.

[2] = tested on: T. cruzi intracellular amastigotes (Tulahuen strain); experiment: In vitro activity for T. cruzi amastigotes in U-937 cells; assay type: cell-based, Trypanosoma cruzi; settings: for Trypanocidal activity IS (Index of Selectivity = LC50/EC50): LC50 U-937 / EC50 T. cruzi; for EC50: Trypanosoma cruzi, TULAHUEN, U-937, intracellular amastigotes of T. cruzi, 72 h, read-out: Trypanocidal activity EC50 (median effective concentration)
Procedure: as §1
Plates were incubated at 37 °C, 5% CO2. After 72 h of incubation, cells were infected with 5:1 […] of Tulahuen strain (24 h of growing) per cell ratio. Plates were incubated at 37 °C, 5% CO2. After 24 h of incubation 100 μL of each compound concentration were added to each well and plates were incubated again at 37 °C, 5% CO2. After 72 h of incubation 100 μL of chlorophenol red-β-D-galactopyranoside (CPRG) at 100 µM and 0.1%, Nonidet P-40 was added, and after 3 h of incubation, absorbance was read at 570 nm (Varioskan, Thermo). Infected cells exposed to Benznidazole (BZN) were used as a control for trypanocidal activity (positive control) while infected and non-treated cells were used as a control for infection (negative control). Nonspecific absorbance was corrected as described above. Each measurement was done in triplicate in two independent experiments.
as §2, §3, §4

[3] = tested on: P. falciparum (3D7 strain); experiment: In vitro antiplasmodial activity (pLDH); assay type: cell-based, Plasmodium falciparum; settings: for Antiplasmodial activity IS (Index of Selectivity = LC50/EC50): LC50 U-937 / EC50 P. falciparum; for EC50: Plasmodium falciparum, P. falciparum 3D7, total forms, 48 h, read-out: Antiplasmodial activity EC50 (median effective concentration); for Antiplasmodial activity class: P. falciparum
Procedure: Unsynchronized P. falciparum (3D7 strain) culture was adjusted to 0.5% parasitemia and 1% hematocrit in RPMI medium enriched with 3% lipid-rich bovine serum albumin-Albumax II. In each well of a 96-well tissue culture plate, 100 µl of parasite suspension and 100 µl of each dilution of the compounds were added. Plates were incubated for 48 h at 37 °C, 90% N2, 5% CO2, 5% O2. After incubation, supernatants were harvested and parasites were subjected to three 20–minute freeze–thaw cycles. In a second flat–bottomed 96-well microtiter plate were dispensed 100 µL of Malstat reagent, pH 9.0, 25 µL of NBT/PES solution, and 15 µL of lysed parasites. Plates were incubated in the dark at 37 °C for 90 min and color development of the pLDH reaction was read at 650 nm (Varioskan, Thermo). […] Nonspecific absorbance was corrected by subtracting optical density (OD) of the blank. […]. Each measurement was done in triplicate in two independent experiments.
as §2, §4

[4] = in vitro
Procedure: Then, 100 µL of cell suspension and 100 μL of each concentration of the compounds were placed in each well of 96-well tissue culture microplate, and plates were incubated again at 37 °C, 5% CO2. […] The reaction was stopped with 100 μL/well of DMSO and absorbance was recorded at 570 nm (Varioskan Flash, Thermo Scientific, Waltham, MA, USA). […] Each measurement was done in triplicate in two independent experiments.
To calculate the cytotoxicity, the percentages of mortality for each concentration tested were calculated according to Eq. 1:
1 %Mortality=100-ODexposedcells/ODnonexposedcellsx100
as §2, §4

[5] = tested on: Leishmania amazonensis promastigotes; parameters: method as in earlier work; settings: ref 53 (Silva et al. 2017), read-out: EC50 against Leishmania amazonensis promastigotes; cited from earlier work
[6] = tested on: L. branziliensis; parameters: method as in PMID 28509873; settings: previous studies; read-out: EC50 reported for L. branziliensis; cited from earlier work
[7] = tested on: murine model of alveolar echinococcosis; parameters: method as in PMID 32101761; settings: listed as menthol-pentanol prodrug; cited from earlier work
[8] = tested on: Echinococcus multilocularis protoscoleces; parameters: method as in PMID 32101761; settings: E. multilocularis protoscoleces, in vitro; cited from earlier work
[9] = Leishmania braziliensis, U-937, 72 h

Compound	Leishmanicidal activity IS (Index of Selectivity = LC50/EC50) [1]	EC50 [1, 9] [µM]	Trypanocidal activity IS (Index of Selectivity = LC50/EC50) [2]	EC50 [2] [µM]	Antiplasmodial activity IS (Index of Selectivity = LC50/EC50) [3]	EC50 [3] [µM]	CC50 at 72 h [4] [µM]	Antiplasmodial activity class [3]	Trypanocidal activity class ([2]; T. cruzi amastigotes)	EC50 [5] [µM]	EC50 [6] [µM]	EC50 ([1]; Leishmania braziliensis, U-937) [µM]	Leishmanicidal activity class [1]	EC50 [1] [µM]	clinical efficacy [7]	protoscolicidal effect [8]
CC1CCC(C(C)C)C(OC(=O)OC(C)C)C1 (centres unmarked) [Compound 4, Isopropyl(2-Isopropyl-5-methylcyclohexanol)carbonate]	3.4	43.2 ± 0.3	0.1	2060 ± 175	2.4	60.7 ± 1	145 ± 74.5									
CCCCCCOC(=O)OC1CC(C)CCC1C(C)C (centres unmarked) [Compound 7, Hexyl(2-Isopropyl-5-methylcyclohexanol)carbonate]	2.6	28.2 ± 1.1	1.6	46.3 ± 4.9	0.2	432 ± 239	73.3 ± 15.8	low (low activity (EC50 > 100 μM))								
CC1CCC(C(C)C)C(O)C1 (centres unmarked) [Menthol, 2-Isopropyl-5-methylcyclohexanol]		> 128	1.5	173 ± 28.9	0.7	358 ± 51	266 ± 188		low (low activity (EC50 > 100 μM))	1270						
COC(=O)OC1CC(C)CCC1C(C)C (centres unmarked) [Compound 1, Metyl(2-Isopropyl-5-methylcyclohexanol)carbonate]	3.0	22.9 ± 2.8	0.6	105 ± 34.5	0.5	127 ± 9.9	68.5 ± 6.7	low (low activity (EC50 > 100 μM))								
CCCCCCCOC(=O)OC1CC(C)CCC1C(C)C (centres unmarked) [Compound 8, Heptyl(2-Isopropyl-5-methylcyclohexanol)carbonate]		> 23.5	1.8	27.6 ± 4.4	0.7	67.4 ± 5.8	48.4 ± 6.1									
C=CCc1ccc(O)c(OC)c1 [eugenol]										505	60.4					
C[C@@H]1[C@H](O)[C@@H](C)/C=C/C=C/C=C/C=C/C=C/C=C/C=C/[C@H](O[C@@H]2O[C@H](C)[C@@H](O)[C@H](N)[C@@H]2O)C[C@@H]2O[C@](O)(C[C@@H](O)C[C@@H](O)[C@H](O)CC[C@@H](O)C[C@@H](O)CC(=O)O[C@H]1C)C[C@H](O)[C@H]2C(=O)O [AMB, Amphotericin B, reference compound]	134.8						53.9 ± 7.4					0.4 ± 0.1				
CCCCCCCCOC(=O)OC1CC(C)CCC1C(C)C (centres unmarked) [Compound 9, Octyl(2-Isopropyl-5-methylcyclohexanol)carbonate]	0.1	463 ± 206	1.7	26.7 ± 4.6	0.7	62.4 ± 6.5	44.1 ± 3.8									
CCCCOC(=O)OC1CC(C)CCC1C(C)C (centres unmarked) [Compound 5, Butyl(2-Isopropyl-5-methylcyclohexanol)carbonate]	3.5	53.3	1.7	122 ± 21.4	3.7	56.3 ± 1	207 ± 38.2						moderate (moderate (EC50 > 50 μM < 100 μM))	59.3 ± 1.4		
COc1cccc2c1C(=O)c1c(O)c3c(c(O)c1C2=O)C[C@@](O)(C(=O)CO)C[C@@H]3O[C@H]1C[C@H](N)[C@H](O)[C@H](C)O1 [DOXO, Doxorubicin, reference compound]							1.7 ± 0.2									
O=C(Cn1ccnc1[N+](=O)[O-])NCc1ccccc1 [BNZ, Benznidazole, reference compound]			12.8	60.1 ± 12.2			> 768									
CCOC(=O)OC1CC(C)CCC1C(C)C (centres unmarked) [Compound 2, Etyl(2-Isopropyl-5-methylcyclohexanol)carbonate]	3.6	28.4 ± 0.4	3.1	33.8 ± 4.3	3.6	28.4 ± 0.4	103 ± 35.8	high (high (EC50 < 50 μM))								
CCCCCOC(=O)OC1CC(C)CCC1C(C)C (centres unmarked) [Compound 6, Pentyl(2-Isopropyl-5-methylcyclohexanol)carbonate]		96.7 ± 0.6	7.4	29.6 ± 1.2									moderate (moderate (EC50 > 50 μM < 100 μM))		clinical efficacy similar to Albendazole	greater protoscolicidal effect than menthol
CCCOC(=O)OC1CC(C)CCC1C(C)C (centres unmarked) [Compound 3, Propyl(2-Isopropyl-5-methylcyclohexanol)carbonate]	1.8	31.8 ± 4.1	1.7	33.8	0.9	60.7 ± 1.2	57 ± 14.4									
